{"source": "patent US20140023657A1", "about": "“IN VITRO METHOD FOR IDENTIFYING COMPOUNDS FOR CANCER THERAPY” (CONSEJO SUPERIOR DE INVESTIGACIONES CIENTIFICAS, priority 2005, published 2014)", "key": {"BEC": {"tested_on": "BEC", "assay": "Antiproliferative effect of ChoK inhibition, primary bronchial epithelial cells", "format": "cell-based, human", "experimental": "(§1) First, the mRNA levels corresponding to said enzyme in cell lines derived from patients with lung cancer were detected again by means of automated real-time quantitative PCR reactions with specific Taqman probes. They were carried out both on cell lines corresponding to the most common type of lung cancer (75-85%), non-microcytic or NSCLC (non small cell lung cancer), represented by lines H460 and H1299, and on lines corresponding to the other type of cancer, microcytic or SCLC (small cell lung cancer), represented by lines H510 and H82, the data being represented in logarithmic scale relating to normal primary human bronchial epithelial cells, BEC. […] An increase with respect to the controls, which is particularly considerable in the case of the SCLC lines, especially H510, is observed in all cases.\n(§2) The antiproliferative effect of ChoK inhibition in said cell lines caused by the addition of MN58b was also checked, obtaining the results shown in the following Table, in which the numbers between parentheses indicate the sensitivity of each cell compared with the primary cells. The differences between the primary cells and the four cell lines derived from tumors were significant (p:<0.001) in all the analyzed time periods."}, "HMEC [1]": {"tested_on": "HMEC", "assay": "Antiproliferative effect of ChoK inhibition, primary mammary epithelial cells", "format": "cell-based, human", "description": "as §2"}, "H1299": {"tested_on": "H1299", "assay": "Antiproliferative effect of ChoK inhibition, NSCLC line", "format": "cell-based, human", "details": "for IC50: H1299 (NSCLC); for sensitivity of the cell compared with the primary cells: number in parentheses", "experimental": "as §1, §2"}, "H460": {"tested_on": "H460", "assay": "Antiproliferative effect of ChoK inhibition, NSCLC line", "format": "cell-based, human", "details": "for IC50: H460 (NSCLC); for sensitivity of the cell compared with the primary cells: number in parentheses", "experimental": "as §1, §2"}, "H510": {"tested_on": "H510", "assay": "Antiproliferative effect of ChoK inhibition, SCLC line", "format": "cell-based, human", "details": "for IC50: H510 (SCLC); for sensitivity of the cell compared with the primary cells: number in parentheses", "experimental": "as §1, §2"}, "H82": {"tested_on": "H82", "assay": "Antiproliferative effect of ChoK inhibition, SCLC line", "format": "cell-based, human", "details": "for IC50: H82 (SCLC); for sensitivity of the cell compared with the primary cells: number in parentheses", "experimental": "as §1, §2"}, "[2]": {"target": "T1, recombinant human choline kinase alpha (Homo sapiens, UniProt P35790)", "T1 construct": "made in house; host or cells: E. coli", "T1 sequence (P35790 whole entry, canonical isoform)": "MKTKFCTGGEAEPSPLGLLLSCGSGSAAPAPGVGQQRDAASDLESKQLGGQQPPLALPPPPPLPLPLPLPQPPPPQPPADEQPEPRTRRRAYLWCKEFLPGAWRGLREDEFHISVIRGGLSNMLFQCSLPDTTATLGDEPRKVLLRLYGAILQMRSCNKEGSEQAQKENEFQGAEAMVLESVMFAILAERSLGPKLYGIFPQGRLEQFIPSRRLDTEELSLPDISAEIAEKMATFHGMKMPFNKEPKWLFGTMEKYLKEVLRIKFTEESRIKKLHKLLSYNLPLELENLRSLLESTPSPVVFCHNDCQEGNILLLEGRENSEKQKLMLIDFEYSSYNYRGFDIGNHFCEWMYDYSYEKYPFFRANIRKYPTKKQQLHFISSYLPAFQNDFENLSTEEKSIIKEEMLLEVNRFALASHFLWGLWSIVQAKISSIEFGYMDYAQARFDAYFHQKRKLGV", "assay": "Enzymatic activity of recombinant choline kinase isoforms in E. coli extracts", "format": "biochemical", "details": "recombinant isoforms expressed in E. coli", "experimental": "FIG. 9: Specificity of the inhibitor MN58b on choline kinase alpha. E. coil extracts in which recombinant human choline kinase alpha or choline kinase beta proteins are expressed were analyzed in the absence (0) or in the presence of increasing concentrations of MN58b.\nOnce the oncogenic activity of the choline kinase alpha isoform, as well as its high incidence of overexpression in human tumors was verified, it was then studied if the anti-tumor effect of the inhibitor MN58b [Hernández-Alcoceba, R., Saniger, L., Campos, J., Núñdez, M. C., Khaless, F., Gallo, M. Á., Espinosa, A., Lacal, J. C. Oncogene, 15, 2289-2301 (1997); Hernández-Alcoceba, R., Fernández, F., Lacal J. C. Cancer Res. 55, 3112-3118 (1999); Ramirez de Molina A., Bañez-Coronel M., Gutiérrez R., Rodriguez González A., Olmeda D., Megias D., Lacal J. C. Cancer Res. 64:6732-6739 (2004)] is specific for this choline kinase alpha isoform or if, in contrast, it could also be attributed to its possible interaction with the choline kinase beta isoform. This verification is necessary because the two choline kinase alpha and choline kinase beta isoforms share up to 75% homology in the substrate binding domains and in the catalytic region. […]"}, "[3]": {"tested_on": "HEK293T cells transfected with the cka gene", "assay": "Growth of tumors induced by choline kinase alpha overexpression in Nu/Nu mice", "format": "in vivo", "details": "5 mg/Kg intraperitoneally, 5 consecutive days with 9 days of rest", "experimental": "Given that tumors have been generated in vivo by overexpressing choline kinase alpha and that MN58b is specific for this isoform, it has been verified if the growth of the tumors induced by ChoKα is susceptible to inhibition by MN58b. […] When the tumors reached a tumor volume of 0.1 cm^3, treatment with the specific choline kinase alpha inhibitor, MN58b, began, which was administered intraperitoneally in sterile physiological serum for 5 consecutive days with 9 days of rest at a dose of 5 mg/Kg. The control mice received equivalent carrier doses, following the same calendar and the tumors were monitored at least twice a week."}, "Ch-ind-1 cells": {"tested_on": "Ch-ind-1 cells", "assay": "Proliferation of inducible interference line with chemical ChoK inhibitors", "format": "cell-based, human", "details": "Ch-ind-1, analogous to parent MDA-MB-231", "description": "FIG. 23: Proliferation of MDA-MB-231 (upper row of plaques) and Ch-ind-1 (lower row of plaques) cells in growth permissive conditions (“Control” column? or in the presence of the chemical inhibitors of choline kinase MN58b (middle column) or RSM936 (right column).\nFIGS. 23 and 24 show the results obtained in Ch-ind-1 cells, a cell line derived from MDA-MB-231, capable of expressing the interference construction after treatment with the inducing agent doxocycline. […] The genetic inhibition of ChoKα is correlated with a reduction of cell proliferation (determined by pCNA) and an increase of cell death due to apoptosis (determined by PARPdig, degraded PARP protein, which is an indicator of apoptosis). The effect begins to be seen after 10 days, although it is still very initial, and is much more pronounced 20 days after the beginning of the experiment (in which the population has very little ChoKα expression)."}, "MDA-MB-231": {"tested_on": "MDA-MB-231", "details": "MDA-MB-231, previously described; cited from earlier work"}, "HMEC [4]": {"tested_on": "HMEC", "details": "cited from earlier work"}}, "note": "Where two headings read alike, the source gives them in different places.", "data": [{"substance": "MN58b", "values": [{"measurement": "IC50", "setting": "BEC; 48 h, read-out: 48 h IC50", "result": "40.5 ± 6.2", "unit": "µM"}, {"measurement": "IC50", "setting": "BEC; 72 h, read-out: 72 h IC50", "result": "18.3 ± 4.8", "unit": "µM"}, {"measurement": "IC50", "setting": "BEC; 114 h, read-out: 114 h IC50", "result": "4.2 ± 0.8", "unit": "µM"}, {"measurement": "IC50", "setting": "HMEC [1]; 48 h, read-out: 48 h IC50", "result": "44.7 ± 4.95", "unit": "µM"}, {"measurement": "IC50", "setting": "HMEC [1]; 72 h, read-out: 72 h IC50", "result": "20.9 ± 2.7", "unit": "µM"}, {"measurement": "IC50", "setting": "HMEC [1]; 114 h, read-out: 114 h IC50", "result": "3.4 ± 0.13", "unit": "µM"}, {"measurement": "IC50", "setting": "H1299; 48 h, read-out: 48 h IC50", "result": "10.3 ± 2.5", "unit": "µM"}, {"measurement": "IC50", "setting": "H1299; 72 h, read-out: 72 h IC50", "result": "2.7 ± 0.7", "unit": "µM"}, {"measurement": "IC50", "setting": "H1299; 114 h, read-out: 114 h IC50", "result": "0.9 ± 0.1", "unit": "µM"}, {"measurement": "sensitivity of the cell compared with the primary cells", "setting": "H1299; H1299, 48 h", "result": 4}, {"measurement": "sensitivity of the cell compared with the primary cells", "setting": "H1299; H1299, 72 h", "result": 8}, {"measurement": "sensitivity of the cell compared with the primary cells", "setting": "H1299; H1299, 114 h", "result": 4}, {"measurement": "IC50", "setting": "H460; 48 h, read-out: 48 h IC50", "result": "7.03 ± 2.03", "unit": "µM"}, {"measurement": "IC50", "setting": "H460; 72 h, read-out: 72 h IC50", "result": "2.6 ± 0.8", "unit": "µM"}, {"measurement": "IC50", "setting": "H460; 114 h, read-out: 114 h IC50", "result": "1.1 ± 0.1", "unit": "µM"}, {"measurement": "sensitivity of the cell compared with the primary cells", "setting": "H460; H460, 48 h", "result": 6}, {"measurement": "sensitivity of the cell compared with the primary cells", "setting": "H460; H460, 72 h", "result": 8}, {"measurement": "sensitivity of the cell compared with the primary cells", "setting": "H460; H460, 114 h", "result": 3}, {"measurement": "IC50", "setting": "H510; 48 h, read-out: 48 h IC50", "result": "1.1 ± 0.1", "unit": "µM"}, {"measurement": "IC50", "setting": "H510; 72 h, read-out: 72 h IC50", "result": "0.4 ± 0.05", "unit": "µM"}, {"measurement": "IC50", "setting": "H510; 114 h, read-out: 114 h IC50", "result": "0.1 ± 0.03", "unit": "µM"}, {"measurement": "sensitivity of the cell compared with the primary cells", "setting": "H510; H510, 48 h", "result": 41}, {"measurement": "sensitivity of the cell compared with the primary cells", "setting": "H510; H510, 72 h", "result": 53}, {"measurement": "sensitivity of the cell compared with the primary cells", "setting": "H510; H510, 114 h", "result": 27}, {"measurement": "IC50", "setting": "H82; 48 h, read-out: 48 h IC50", "result": "1.9 ± 0.2", "unit": "µM"}, {"measurement": "IC50", "setting": "H82; 72 h, read-out: 72 h IC50", "result": "0.8 ± 0.04", "unit": "µM"}, {"measurement": "IC50", "setting": "H82; 114 h, read-out: 114 h IC50", "result": "0.27 ± 0.01", "unit": "µM"}, {"measurement": "sensitivity of the cell compared with the primary cells", "setting": "H82; H82, 48 h", "result": 24}, {"measurement": "sensitivity of the cell compared with the primary cells", "setting": "H82; H82, 72 h", "result": 27}, {"measurement": "sensitivity of the cell compared with the primary cells", "setting": "H82; H82, 114 h", "result": 12}, {"measurement": "times more active against choline kinase alpha than against choline kinase beta", "setting": "[2]", "result": 20, "unit": "times"}, {"measurement": "tumor growth reduction", "setting": "[3]", "result": 80, "unit": "%"}, {"measurement": "sensitivity of proliferation to chemical inhibition of ChoKα", "setting": "Ch-ind-1 cells", "result": "sensitive to the chemical inhibition"}, {"measurement": "anti-tumor effect of pharmacological inhibition of choline kinase", "setting": "MDA-MB-231", "result": "strong anti-tumor effect due to apoptosis induction"}, {"measurement": "cell fate of primary cells after treatment", "setting": "HMEC [4]; HMEC treated with the inhibitor", "result": "cycle-arrested"}, {"measurement": "effect on the viability of normal primary cells", "setting": "HMEC [4]; HMEC, chemical inhibitor", "result": "no effect on the viability"}]}]}
